In EPA's ToxValDB 9.5 (doi:10.2903/j.efsa.2010.1555):

Legend:
Apis mellifera = settings: acute; oral; unspecified; mortality
Coturnix coturnix = settings: acute; oral; diet; mortality
Daphnia magna = settings: chronic/long-term; duration: 21 days; reproduction
Canidae = settings: chronic; duration: 1 years; oral; Dog Other
Coturnix japonica = settings: reproduction developmental
Tagia sp. = settings: acute; duration: 14 days; mortality
[1] = reproduction developmental, body weight

Work on `CCC([O-])=C1C(=O)CC(C(=O)[O-])CC1=O.[Ca+2]` (stereo unspecified) [Prohexadione-calcium] yielded an LC50 (Oncorhynchus mykiss; acute, duration: 96 hours, mortality) greater than 100 µg/mL, an NOEC (Oncorhynchus mykiss; chronic/long-term, duration: 28 days, growth) of 100 mg/L and an LD50 (Apis mellifera) greater than 100 µg/piece. It also gave an LC50 (Coturnix coturnix) greater than 1210 mg/kg-day, an NOEC (Daphnia magna) of 100 mg/L and an LD50 (Anas platyrhynchos; acute, oral, unspecified, mortality) greater than 2000 mg/kg. The NOEC (Anas platyrhynchos; reproductive) was 116 mg/kg-day, the LC50 (Anas platyrhynchos; short-term, oral, feed, mortality) was greater than 1350 mg/kg-day and the NOAEL (Canidae) was 20 mg/kg-day. For the same compound, the LD50 (Colinus virginianus; acute, oral, mortality) was greater than 2000 mg/kg, the NOEC (Colinus virginianus; reproduction developmental) was 48.8 mg/kg-day and the NOEC (Coturnix japonica) was 126 mg/kg-day. For the same compound, the LD50 (Rattus norvegicus; acute, oral, mortality) was greater than 5000 mg/kg, the NOAEL (Rattus norvegicus; [1]) was 35 mg/kg-day and the NOEL (Rattus norvegicus; [1]) was 35 mg/kg-day. For the same compound, the LC50 (Tagia sp.) was greater than 1000 mg/kg.
